US12590099B2, “Inhibitors of histone deacetylase useful for the treatment or prevention of HIV infection” (Merck Sharp & Dohme LLC, priority 2018, dated 2026)
Read-outs that look alike come from different tables or passages of the source.

Legend:
HDAC6 = target: T1, HDAC6 (Homo sapiens, UniProt Q9UBN7); test: Human HDAC enzyme inhibitor Fluor-de-Lys assay, HDAC6; assay type: biochemical; conditions: HDAC6, Fluor-de-Lys assay
T1 sequence (Q9UBN7 1-1215): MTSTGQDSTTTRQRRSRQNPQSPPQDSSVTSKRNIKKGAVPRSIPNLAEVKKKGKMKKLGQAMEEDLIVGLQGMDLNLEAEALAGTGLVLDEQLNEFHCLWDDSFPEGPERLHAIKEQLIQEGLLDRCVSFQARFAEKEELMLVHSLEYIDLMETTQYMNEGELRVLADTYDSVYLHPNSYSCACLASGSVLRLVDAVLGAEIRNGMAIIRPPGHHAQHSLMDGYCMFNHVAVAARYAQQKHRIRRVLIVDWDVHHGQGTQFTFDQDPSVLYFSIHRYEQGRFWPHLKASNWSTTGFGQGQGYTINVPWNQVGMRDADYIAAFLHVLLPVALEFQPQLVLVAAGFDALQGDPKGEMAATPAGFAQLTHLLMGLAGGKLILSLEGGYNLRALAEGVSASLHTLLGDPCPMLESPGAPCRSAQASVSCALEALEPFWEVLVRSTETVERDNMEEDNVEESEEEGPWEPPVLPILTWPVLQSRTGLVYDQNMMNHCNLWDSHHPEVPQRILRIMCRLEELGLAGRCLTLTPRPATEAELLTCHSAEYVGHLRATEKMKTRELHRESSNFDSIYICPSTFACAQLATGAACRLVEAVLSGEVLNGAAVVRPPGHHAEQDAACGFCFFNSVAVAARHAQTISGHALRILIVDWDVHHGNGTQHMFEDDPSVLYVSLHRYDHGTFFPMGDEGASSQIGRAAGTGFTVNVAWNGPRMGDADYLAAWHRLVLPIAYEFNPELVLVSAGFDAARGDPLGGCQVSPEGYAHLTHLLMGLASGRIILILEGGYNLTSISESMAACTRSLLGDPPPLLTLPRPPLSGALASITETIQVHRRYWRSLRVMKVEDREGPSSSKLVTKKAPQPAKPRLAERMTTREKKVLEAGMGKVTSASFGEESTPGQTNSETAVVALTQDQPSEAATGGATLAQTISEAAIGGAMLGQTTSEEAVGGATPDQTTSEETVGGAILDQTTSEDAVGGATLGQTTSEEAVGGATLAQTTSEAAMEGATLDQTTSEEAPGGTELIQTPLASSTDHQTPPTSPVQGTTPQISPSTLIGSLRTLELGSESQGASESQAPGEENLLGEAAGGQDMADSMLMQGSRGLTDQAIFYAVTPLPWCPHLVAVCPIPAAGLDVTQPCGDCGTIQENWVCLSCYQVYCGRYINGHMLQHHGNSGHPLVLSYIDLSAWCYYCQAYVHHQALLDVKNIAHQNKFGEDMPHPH
Procedure: (§1) Human HDAC Enzyme Inhibitor Fluor-De-Lys Assay
(§2) Recombinant human HDAC8 (BML-SE145-0100) and HDAC10 (BML-SE559-0050) enzymes, HDAC substrates BML-KI104 and BML-KI178, and HDAC developer solutions BML-KI105 and BML-KI176 were purchased from Enzo Life Sciences. […] HDAC inhibitor suberoylanilide hydroxamic acid (SAHA) was obtained from Indofine and trichostatin A (TSA) was obtained from Sigma-Aldrich.
(§3) The histone deacetylase activities of HDAC1, HDAC2, HDAC3, HDAC6, and HDAC8 were measured in modified FLUOR DE LYS assays in 384-well format. In this assay, HDAC enzymes are initially incubated with an ε-acetyl (or -trifluoroacetyl)-L-lysine-containing substrate with a C-terminal amide having aminomethylcoumarin as the amine component. HDACs cleave the ε-acetyl group, rendering the resulting product susceptible to AMC cleavage by trypsin. The released AMC is then detected by its fluorescence.
(§4) The HDAC3/SMRT assay employed buffer B, consisting of 20 mM HEPES, pH 8.0, 1 mM MgCl2, 50 mM NaCl, 2.7 mM KCl, 0.05% BSA, 0.005% Tween 20, and 10 μM IP4. […] The HDAC8 assay employed buffer D, consisting of 20 mM HEPES, pH 8.0, 1 mM MgCl2, 100 mM NaCl, 20 mM KCl, 0.10% n-octyl-β-D-glucoside (Anatrace) and 0.05% BSA. All steps were performed at room temperature (23° C.). The assay was performed by pre-incubating serial dilutions of test compounds with the target HDAC prior to initiation with substrate. Each compound was titrated in a 10-point dose response, using a 1:3 fold dilution scheme, with 0.15 ul of solution added by ECH0555 to the plate, followed by the addition of 20 μl of the appropriate HDAC isoform diluted in appropriate assay buffer. […] Final conditions used for each assay were: 1. HDAC 1, 0.3 nM total enzyme, 20 μM substrate BML-KI104; 2. […] HDAC 3/SMRT, 0.3 nM total enzyme, 20 μM substrate BML-KI104; 4. […] The reactions were stopped and developed by addition of 30 ul of HDAC developer solution containing a saturating level of HDAC inhibitor as follows: 1.

Recombinant human HDAC8 = target: T2, Recombinant human HDAC8 (Homo sapiens, UniProt Q9BY41); test: Human HDAC enzyme inhibitor Fluor-de-Lys assay, HDAC8; assay type: biochemical; conditions: recombinant human HDAC8, Fluor-de-Lys assay
T2 construct: purchased Enzo Life Sciences BML-SE145-0100
T2 sequence (Q9BY41 1-377): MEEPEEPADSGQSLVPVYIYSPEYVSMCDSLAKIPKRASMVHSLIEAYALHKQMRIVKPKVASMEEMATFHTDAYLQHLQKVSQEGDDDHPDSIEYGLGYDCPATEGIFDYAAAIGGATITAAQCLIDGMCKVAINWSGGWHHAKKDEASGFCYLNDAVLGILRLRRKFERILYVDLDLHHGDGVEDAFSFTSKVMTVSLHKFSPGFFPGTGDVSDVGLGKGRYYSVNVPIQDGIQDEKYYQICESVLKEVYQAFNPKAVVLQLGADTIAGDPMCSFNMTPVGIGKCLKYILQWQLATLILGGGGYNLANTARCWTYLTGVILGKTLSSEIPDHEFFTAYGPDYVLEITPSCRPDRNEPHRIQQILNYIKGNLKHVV
Procedure: as §1, §2, §3, §4

KARN cells (Jurkat 2C4) = test: cells; assay type: cell-based; conditions: luciferase induction, 100% = 2 μM SAHA
Procedure: KARN cells (Jurkat 2C4) were licensed from the laboratory of Dr. John Karn, Case Western Reserve University, School of Medicine. […] An atmosphere of 5% CO2 and 90% humidity was used for all culture work.
Day 1: After the 3-4 day growth period, the cells were transferred from the T175 flask to a 50 ml conical tube and gently pelleted at 1000 rpm for 5 minutes. […] These flasks were returned to the incubator.
Day 2: Cell Preparation: The next day, the cells were transferred from each T175 flask to an individual 50 ml conical tube and gently pelleted at 1000 rpm for 5 minutes. The cells were gently resuspended in assay media (30 ml) and pelleted again. […] The cells were counted using the ViCell (Beckman Coulter) and diluted as necessary. […] The plates were covered and returned to the incubator prior to compound addition.
The reference compounds, DMSO and SAHA were then added to the compound plate. […] The final high concentration for SAHA and the test compounds in the assays was 40 μM. The final DMSO concentration in all wells was 0.4%. The minimal induction reference compound used was DMSO and the maximal induction reference compound used was SAHA (2 μM final concentration in the assay).
Day 3: The luciferase detection reagent was prepared by transferring the contents of one bottle of Steady-Glo buffer to one bottle of Steady-Glo aubstrate (Steady-Glo Luciferase Assay System, Promega, catalog number E2520), followed by gently mixing until the substrate was thoroughly dissolved and the solution was equilibrated to room temperature. […] The Steady-Glo Reagent was added to the plates (30 μl/well), which were then covered with a black lid and incubated for 10 minutes at room temperature. The plates were then read for luminescence on an Envision (Perkin Elmer) using the ultrasensitive mode (US LUM), […] and 384-well aperture. Luminescence counts in the DMSO reference wells were considered as 0% induction, while those in the 2 μM SAHA reference wells were considered as 100% induction. Dose response curves were plotted as test compound concentration (X-axis) vs. percent activation (Y-axis) using a 4-parameter fit based on the Levenberg-Marquardt algorithm.

[1] = read-out: Karn EC50 (nM) 0.1% NHS, 0.1% normal human serum
[2] = read-out: Karn EC50 (nM) 5% NHS, 5% normal human serum
[3] = Homo sapiens, Jurkat, read-out: Karn EC50 (nM) 0.1% NHS, 0.1% normal human serum
[4] = Homo sapiens, Jurkat, read-out: Karn EC50 (nM) 5% NHS, 5% normal human serum

| SMILES | IC50 (HDAC6) | IC50 (Recombinant human HDAC8) | EC50 (KARN cells (Jurkat 2C4); [1]) | EC50 (KARN cells (Jurkat 2C4); [2]) | EC50 (KARN cells (Jurkat 2C4); [3]) | EC50 (KARN cells (Jurkat 2C4); [4]) |
| --- | --- | --- | --- | --- | --- | --- |
| CCC(=O)CCCCC[C@H](NC(=O)[C@H]1CC12CCCN(C)C2)c1ncc(-c2cc3ccccc3nc2OC)[nH]1 (some centres unmarked) [Compound 287] | 351 nM | 2780 nM | 81 nM | 325 nM | – | – |
| CCC(=O)CCCCC[C@H](NC(=O)[C@H]1CC12CCN(CC)CC2)c1ncc(-c2cc3ccccc3nc2O)[nH]1 [Compound 291] | 741 nM | > 15000 nM | – | – | 192 nM | 295 nM |
| CCC(=O)CCCCC[C@H](NC(=O)[C@@H]1CC12CCN(CC)CC2)c1ncc(-c2cc3ccccc3[nH]c2=O)[nH]1 [Compound 292] | > 1500 nM | > 4500 nM | – | – | 992 nM | 1380 nM |
| CCC(=O)CCCCC[C@H](NC(=O)[C@H]1CC12CCN(Cc1ccccc1)CC2)c1ncc(-c2cc3ccccc3nc2OC)[nH]1 [Compound 293] | 727 nM | 8200 nM | – | – | 75 nM | 175 nM |
| CCC(=O)CCCCC[C@H](NC(=O)[C@H]1CC12CCN(Cc1cccnc1)CC2)c1ncc(-c2cc3ccccc3nc2OC)[nH]1 [Compound 294] | 415 nM | 4920 nM | – | – | 63 nM | 277 nM |
| CCC(=O)CCCCC[C@H](NC(=O)[C@H]1CC12CCN(Cc1ccc(OC)cc1)CC2)c1ncc(-c2cc3ccccc3nc2OC)[nH]1 [Compound 295] | 973 nM | 3230 nM | – | – | 113 nM | 180 nM |
| CCC(=O)CCCCC[C@H](NC(=O)C1CC2(C1)CN(C)C2)c1ncc(-c2cc3ccccc3nc2OC)[nH]1 [Compound 311] | 385 nM | 2660 nM | – | – | 131 nM | 841 nM |
| CCC(=O)CCCCC[C@H](NC(=O)C1CC12CN(C)C2)c1ncc(-c2cc3ccccc3nc2OC)[nH]1 (some centres unmarked) [Compound 312] | 299 nM | 2020 nM | – | – | 155 nM | 633 nM |
| CCC(=O)CCCCC[C@H](NC(=O)C1CC12CCN(C)CC2)c1ncc(-c2cc3ccccc3nc2OC)[nH]1 (stereo partly drawn) [Compound 313, N—((S)-1-(5-(2-methoxyquinolin-3-yl)-1H-imidazol-2-yl)-7-oxononyl)-6-methyl-6-azaspiro[2.5]octane-1-carboxamide] | 246 nM | 3020 nM | – | – | 57 nM | 272 nM |
| CCC(=O)CCCCC[C@H](NC(=O)C1CCC2(CC1)CN(C)C2)c1ncc(-c2cc3ccccc3nc2OC)[nH]1 [Compound 315] | 459 nM | 1950 nM | – | – | 86 nM | 688 nM |
| CCC(=O)CCCCC[C@H](NC(=O)C1CCC2(CC1)CN(C)C2)c1ncc(-c2cc3ccccc3nc2OC)[nH]1 [Compound 316] | 387 nM | 1680 nM | 151 nM | 660 nM | – | – |
| CCC(=O)CCCCC[C@H](NC(=O)[C@@H]1CC12CN(C)C2)c1ncc(-c2cc3ccccc3nc2OC)[nH]1 [Compound 322] | 219 nM | 2490 nM | – | – | 74 nM | 287 nM |
| CCC(=O)CCCCC[C@H](NC(=O)[C@H]1CC12CN(C)C2)c1ncc(-c2cc3ccccc3nc2OC)[nH]1 [Compound 323] | 376 nM | 2300 nM | – | – | 284 nM | 1290 nM |
| CCC(=O)CCCCC[C@H](NC(=O)[C@H]1C[C@@]12CCN(C)C2)c1ncc(-c2cc3ccccc3nc2OC)[nH]1 [Compound 328] | 395 nM | 3310 nM | – | – | 73 nM | 322 nM |
| CCC(=O)CCCCC[C@H](NC(=O)[C@@H]1C[C@]12CCN(C)C2)c1ncc(-c2cc3ccccc3nc2OC)[nH]1 [Compound 329] | > 150 nM | 7040 nM | – | – | 262 nM | 1140 nM |
| CCC(=O)CCCCC[C@H](NC(=O)[C@@H]1C[C@@]12CCN(C)C2)c1ncc(-c2cc3ccccc3nc2OC)[nH]1 [Compound 330] | 632 nM | 13700 nM | – | – | 309 nM | 1150 nM |
| CCCN1CCC2(CC1)C[C@@H]2C(=O)N[C@@H](CCCCCC(=O)CC)c1ncc(-c2cc3ccccc3nc2OC)[nH]1 [Compound 331] | 490 nM | 2030 nM | – | – | 154 nM | 896 nM |
